Measured values from the supplement of paper PMC10307832.

Tests used:
Test in all cases: relative viability (nuclei count vs DMSO), 5 days (fraction); higher = more cells survive
[1] = compound: CC(C)(C)c1cc(NC(=O)Nc2ccc(-c3cn4c(n3)sc3cc(OCCN5CCOCC5)ccc34)cc2)no1 [Quizartinib] + O=C(c1cc(Cc2n[nH]c(=O)c3ccccc23)ccc1F)N1CCN(C(=O)C2CC2)CC1 [Olaparib] (partner 8 µM)
Outline: (§1)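 Each reported value is a median over duplicate plates. It expresses relative viability: treated-well nuclei count divided by vehicle-well nuclei count. Lung cancer cell lines in 1536-well plates were dosed by pin tool a day after seeding, alone with one drug or with a fixed anchor-drug dose plus five library-drug doses (not always all listed) in √10 steps, and nuclei were counted after 5 days.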

[2] = compound: COCC[n+]1c2c(n(Cc3cnccn3)c1C)C(=O)c1ccccc1C2=O [YM155] + CC(=O)Nc1cccc(-n2c(=O)n(C3CC3)c(=O)c3c(Nc4ccc(I)cc4F)n(C)c(=O)c(C)c32)c1 [Trametinib] (partner 0.02 µM)
Outline: as §1

[3] = compound: COCC[n+]1c2c(n(Cc3cnccn3)c1C)C(=O)c1ccccc1C2=O [YM155] + COc1cccc2cc(-c3nc([C@H]4CC[C@H](C(=O)O)CC4)n4ncnc(N)c34)[nH]c12 [OSI-027] (partner 0.5 µM)
Outline: as §1

[4] = compound: COCC[n+]1c2c(n(Cc3cnccn3)c1C)C(=O)c1ccccc1C2=O [YM155] + C[C@@H](Oc1cc(-c2cnn(C3CCNCC3)c2)cnc1N)c1c(Cl)ccc(F)c1Cl [Crizotinib] (partner 1 µM)
Outline: as §1

Cell Line	relative viability ([1]; first compound 0.001 µM)	relative viability ([1]; first compound 0.003162 µM)	relative viability ([1]; first compound 0.01 µM)	relative viability ([1]; first compound 0.03162 µM)	relative viability ([1]; first compound 0.1 µM)	relative viability ([2]; first compound 0.002 µM)	relative viability ([2]; first compound 0.006325 µM)	relative viability ([2]; first compound 0.02 µM)	relative viability ([2]; first compound 0.06325 µM)	relative viability ([3]; first compound 0.002 µM)	relative viability ([3]; first compound 0.006325 µM)	relative viability ([3]; first compound 0.02 µM)	relative viability ([3]; first compound 0.06325 µM)	relative viability ([4]; first compound 0.002 µM)	relative viability ([4]; first compound 0.006325 µM)	relative viability ([4]; first compound 0.02 µM)	relative viability ([4]; first compound 0.06325 µM)
201T	0.581	0.802	0.833	0.87	0.857	0.701	0.72	0.702	0.761	0.629	0.696	0.751	0.754	0.98	1	1.01	1.03
A549		0.327	0.378	0.257	0.439									0.717	0.592	0.654	0.142
A-427	0.736	0.719	0.687	0.586	0.711	0.739	0.796	0.757	0.526	0.478	0.562	0.597	0.458	0.959	0.839	0.89	0.865
ABC-1		0.807	0.845	0.911	0.956					0.491	0.477	0.282	0.154	0.844	0.341	0.166	0.15
BEN	1.11	1.02	0.991	0.841	1.02	0.984	0.864	0.951	1.2	0.268	0.311	0.304	0.29	0.873	0.987	0.863	1.05
CAL-12T	0.617	0.76	0.674	0.594	0.841	0.281	0.337	0.346	0.333	0.657	0.619	0.746	0.529	0.608	0.696	0.551	0.409
COR-L23	0.34	0.356	0.319	0.274	0.247	0.629	0.577	0.566	0.192	0.692	0.735	0.488	0.132	0.649	0.569	0.403	0.105
COR-L 105	0.705	0.795	0.65		0.863	0.433	0.449	0.484	0.456	0.574	0.694	0.762	0.54	0.907	0.807	0.591	0.385
Calu-6	0.604	0.549	0.512	0.492	0.64									0.728	0.776	0.349	0.135
ChaGo-K-1		0.415	0.463	0.45	0.447	0.832	0.929	0.865	0.913	0.474	0.536	0.549	0.662	1.1	1.06	1.17	0.784
EBC-1	0.732	0.68	0.803	0.626	0.754									0.186	0.193	0.206	0.202
EKVX		0.821	0.886	0.904	1.01	0.394	0.369	0.376	0.249	0.683	0.759	0.683	0.687	0.834	1.04	0.919	0.839
EMC-BAC-2	0.468	0.441	0.524		0.536	0.924	0.96	0.968	0.429	0.388	0.364	0.374	0.382	0.786	0.765	0.758	0.7
EPLC-272H	0.946	0.635	0.861	0.658	0.434	0.294	0.27	0.335	0.302	0.287	0.312	0.286	0.251	0.692	0.814	0.952	1.06
H3255	0.516	0.552	0.565	0.525	0.57	0.583	0.666	0.632	0.542	0.577	0.56	0.652	0.569	0.836	0.874	0.87	0.874
HARA	0.854	0.803	0.68	0.996	0.759		0.996	0.629	0.676	0.495	0.51	0.792	0.505	1.04	1.13	1.09	0.995
HCC-15	0.684	0.685	0.676	0.641	0.69	0.331	0.389	0.283	0.423	0.693	0.758	0.721	0.534	0.747	0.887	0.815	0.711
HCC-44	0.934	0.982	1.03	0.981	0.952	1.05	1.08	1.08	1.15	0.45	0.608	0.58	0.304	0.805	0.755	0.845	0.776
HCC-78	0.732	0.753	0.899	0.706	0.92	0.698	0.756	0.785	0.879	0.361	0.379	0.385	0.383	0.328	0.322	0.325	0.371
HCC-366	0.324	0.369	0.332	0.328	0.389	0.353	0.421	0.371	0.353	1.08	0.767	1.01	0.945	0.519	0.478	0.612	0.401
